One assay deals with c-Kit(V654A) (Homo sapiens, UniProt P10721, V654A). Nature of the assay: c-Kit(V654A) assay. The assay is classed as biochemical. As to conditions: Table 1; 200 μM ATP. In a few lines: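 Radiometric filter-binding read-out: after 3% phosphoric acid stop, peptide-incorporated 33P on filtermat scintillation-counted. Enzyme: human c-Kit V654A, residues 544–end, N-terminal GST fusion.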

Assay [1] addresses mutant cKIT (560-576 and V654A) in GIST430/654 cell line (Homo sapiens (Human), UniProt P10721, DEL560-576/V654A). Nature of the assay: Cellular testing of cKIT mutant inhibitors: phospho-Y307-cKIT Luminex assay in GIST430/654 cells. The assay is classed as cell-based. As to conditions: Table 1; cKIT autophosphorylation, compounds 45 min; read-out: GIST 430/654 IC50. The essentials:
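GIST430/654 cells carrying constitutively active cKIT (Δ560-576/V654A) were grown with 100 nM imatinib, then treated with serially diluted compound for 45 min. Lysates were captured on anti-total-cKIT Luminex beads overnight at 4 °C and probed for phospho-Y307-cKIT. IC50 was fitted from percent of 0.3% DMSO control.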

Data on 11 compounds can be found in patent US20260042753A1 (Merck Patent GmbH, priority 2019, published 2026).

Chain of mutant cKIT (560-576 and V654A) in GIST430/654 cell line (P10721 other isoform, or with tags, fused parts or gaps V654A/del 1-25/del 560-576 limits assumed): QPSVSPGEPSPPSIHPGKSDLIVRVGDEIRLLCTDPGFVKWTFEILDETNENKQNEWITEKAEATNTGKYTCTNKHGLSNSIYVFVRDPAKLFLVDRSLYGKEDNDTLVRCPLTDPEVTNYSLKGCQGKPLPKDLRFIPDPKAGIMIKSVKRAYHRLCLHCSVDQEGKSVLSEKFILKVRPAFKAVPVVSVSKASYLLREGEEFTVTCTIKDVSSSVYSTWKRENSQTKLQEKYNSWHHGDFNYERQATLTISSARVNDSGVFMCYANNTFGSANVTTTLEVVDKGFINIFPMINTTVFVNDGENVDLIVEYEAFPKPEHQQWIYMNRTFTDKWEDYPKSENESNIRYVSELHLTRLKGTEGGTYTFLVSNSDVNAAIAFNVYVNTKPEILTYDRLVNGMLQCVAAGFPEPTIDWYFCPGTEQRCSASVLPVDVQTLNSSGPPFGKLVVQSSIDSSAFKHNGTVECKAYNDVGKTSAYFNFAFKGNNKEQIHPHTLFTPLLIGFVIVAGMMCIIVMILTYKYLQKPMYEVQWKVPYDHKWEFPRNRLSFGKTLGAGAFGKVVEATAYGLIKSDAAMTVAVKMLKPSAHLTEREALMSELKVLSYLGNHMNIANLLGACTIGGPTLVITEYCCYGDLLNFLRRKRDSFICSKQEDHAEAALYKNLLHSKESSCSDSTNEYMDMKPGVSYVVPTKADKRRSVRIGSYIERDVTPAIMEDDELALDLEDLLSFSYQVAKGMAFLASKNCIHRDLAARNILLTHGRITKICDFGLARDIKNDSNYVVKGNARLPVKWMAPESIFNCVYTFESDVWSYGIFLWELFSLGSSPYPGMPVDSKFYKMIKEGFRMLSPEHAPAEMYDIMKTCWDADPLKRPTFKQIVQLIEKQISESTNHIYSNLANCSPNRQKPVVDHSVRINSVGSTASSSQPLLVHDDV

For `COCCOc1cc2[nH]nc(-c3cc(-c4ccc(C(=O)N5CC(c6cnn(C)c6)C5)cc4)no3)c2cc1F` [A218, 5-fluoro-6-(2-methoxyethoxy)-3-(3-{4-[3-(1-methyl-1H-pyrazol-4-yl)azetidine-1-carbonyl]phenyl}-1,2-oxazol-5-yl)-1H-indazole], the IC50 was 0.62 nM against c-Kit(V654A) and 47 nM in assay [1].
On the same counts, the results for `COc1cc2[nH]nc(-c3cc(-c4ccc(C(=O)N5CCN(C6COC6)CC5)cc4)no3)c2cc1F` [A219, {4-[5-(5-Fluoro-6-methoxy-1H-indazol-3-yl)-isoxazol-3-yl]-phenyl}-(4-oxetan-3-yl-piperazin-1-yl)-methanone] are 8 nM and 280 nM.
On the same counts, the results for `COc1cc2[nH]nc(-c3cc(-c4ccc(C(=O)N5C[C@H]6COC[C@H]6C5)cc4)no3)c2cc1F` [A220, {4-[5-(5-Fluoro-6-methoxy-1H-indazol-3-yl)-isoxazol-3-yl]-phenyl}-(cis)-tetrahydro-furo[3,4-c]pyrrol-5-yl-methanone] are 2.2 nM and 160 nM.
Take `COCCOc1cc2[nH]nc(-c3cc(-c4ccc(C(=O)N5CC(O)(c6cccnc6)C5)cc4)no3)c2cc1F` [A221, 1-(4-{5-[5-fluoro-6-(2-methoxyethoxy)-1H-indazol-3-yl]-1,2-oxazol-3-yl}benzoyl)-3-(pyridin-3-yl)azetidin-3-ol]: the IC50 against c-Kit(V654A) turned out to be 0.54 nM; in assay [1] it was 120 nM.
On the same counts, the results for `CNCC1CCCN1C(=O)c1ccc(-c2cc(-c3n[nH]c4cc(OCCOC)c(F)cc34)on2)cc1` (stereo not shown) [A222, {[1-(4-{5-[5-fluoro-6-(2-methoxyethoxy)-1H-indazol-3-yl]-1,2-oxazol-3-yl}benzoyl)pyrrolidin-2-yl]methyl}(methyl)amine] are 0.52 nM and 110 nM.
On to `COCCOc1cc2[nH]nc(-c3cc(-c4ccc(C(=O)N5C[C@H]6CNC[C@H]6C5)cc4)no3)c2cc1F` [A223, 3-(3-{4-[(cis)-octahydropyrrolo[3,4-c]pyrrole-2-carbonyl]phenyl}-1,2-oxazol-5-yl)-5-fluoro-6-(2-methoxyethoxy)-1H-indazole], for which the results for the IC50 (on c-Kit(V654A); in assay [1]) were 1.1 nM and 380 nM, respectively.
For `O=C(c1ccc(-c2cc(-c3n[nH]c4cc(OCCO)c(F)cc34)on2)cc1)N1CCNCC1` [A224, 2-[(5-fluoro-3-{3-[4-(piperazine-1-carbonyl)phenyl]-1,2-oxazol-5-yl}-1H-indazol-6-yl)oxy]ethan-1-ol] the same measures were 1.1 nM and 250 nM.
On the same counts, the results for `COc1cc2[nH]nc(-c3cc(-c4ccc(C(=O)N5CCNCC5)cc4)no3)c2cc1F` [A225, {4-[5-(5-fluoro-6-methoxy-1H-indazol-3-yl)-isoxazol-3-yl]-phenyl}-piperazin-1-yl-methanone] are 3.1 nM and 340 nM.
On the same counts, the results for `COCCOc1cc2[nH]nc(-c3cc(-c4ccc(S(C)(=N)=O)cc4)no3)c2cc1F` (stereo not shown) [A226, (4-{5-[5-fluoro-6-(2-methoxyethoxy)-1H-indazol-3-yl]-1,2-oxazol-3-yl}phenyl)(imino)methyl-lambda6-sulfanone] are 2 nM and 150 nM.
For `COCCOc1cc2[nH]nc(-c3cc(-c4ccc(S(=O)(=O)N5CCOCC5)cc4)no3)c2cc1F` [A227, 5-fluoro-6-(2-methoxyethoxy)-3-{3-[4-(morpholine-4-sulfonyl)phenyl]-1,2-oxazol-5-yl}-1H-indazole], the IC50 on c-Kit(V654A) was found to be 3 nM; in assay [1], 170 nM.
On the same counts, the results for `COCCOc1cc2[nH]nc(-c3cc(-c4ccc(C(=O)N5CCN(C(CO)CO)CC5)cc4)no3)c2cc1F` [A228, 2-[4-(4-{5-[5-fluoro-6-(2-methoxyethoxy)-1H-indazol-3-yl]-1,2-oxazol-3-yl}benzoyl)piperazin-1-yl]propane-1,3-diol] are 570 nM and 470 nM.
